In ChEMBL document CHEMBL3045229, “Molluscicidal and insecticidal potential of monoterpenes on the white garden snail, Theba pisana (Muller) and the cotton leafworm, Spodoptera littoralis (Boisduval)” (2010):
Values after ≈ are worked out from the molar mass of the structure shown. Active and inactive are the calls of the source. The rule behind the calls is not given here.

Experiments:
Theba pisana [1] = assay: Contact molluscicidal activity against Theba pisana (white garden snail ) exposed to compound throgh application to surface of snail body inside shell assessed as compound level per snail causing snail mortality after 24 hr; assay type: functional
Theba pisana [2] = assay: Fumigant molluscicidal activity against Theba pisana (white garden snail) assessed as snail mortality after 24 hr; assay type: functional
Spodoptera littoralis [3] = assay: Fumigant insecticidal activity against cotton leafworm Spodoptera littoralis third-instar larvae fed on fresh castor bean leaves assessed as insect mortality after 24 hr; assay type: functional
Spodoptera littoralis [4] = assay: Contact insecticidal activity against cotton leafworm Spodoptera littoralis third-instar larvae exposed to 1 mg/larva compound application through dorsum of larvae followed by feeding on fresh castor bean leaves assessed as insect mortality after 24 hr; assay type: functional, Skin of body; settings: for Activity: Skin of body

Structure (SMILES) | LD50 (Theba pisana [1]) | LC50 (Theba pisana [2]) | LC50 (Spodoptera littoralis [3]) | mortality (Spodoptera littoralis [4]) | Activity (Spodoptera littoralis [4])
CC(C)c1ccc(C=O)cc1 [CUMINALDEHYDE] | 28.37 µg | > 100 µg/mL | > 100 µg/mL | 70% | –
CC1(C)C(=O)[C@@]2(C)CC[C@H]1C2 [(L)-FENCHONE] | 135.36 µg | 2.51 µg/mL (≈ 16.5 µM) | 2.27 µg/mL (≈ 14.9 µM) | – | Active
CNC(=O)Oc1cc(C)c(SC)c(C)c1 [METHIOCARB] | 188.68 µg | – | – | – | –
C=C(C)[C@@H]1CC=C(C)CC1 [(-)-LIMONENE] | 60.27 µg | 8.39 µg/mL (≈ 61.6 µM) | 11.4 µg/mL (≈ 83.4 µM) | – | Active
CC12CCC(CC1=O)C2(C)C (configuration not stated) [CAMPHOR] | 89.15 µg | 7.98 µg/mL (≈ 52.4 µM) | 5.61 µg/mL (≈ 36.9 µM) | – | Active
C=C[C@@](C)(O)CC=C(C)C [(-)-LINALOOL] | – | – | – | – | Active
C=CC(=C)CCC=C(C)C [MYRCENE] | >1000 µg | 3.88 µg/mL (≈ 28.5 µM) | > 100 µg/mL | – | Active
C=C(C)[C@@H]1CC=C(C)C(=O)C1 [L-CARVONE] | 132.18 µg | 27 µg/mL (≈ 180 µM) | 19.5 µg/mL (≈ 130 µM) | – | Active
C=C1C2CCC(C2)C1(C)C (configuration not stated) [CAMPHENE] | >1000 µg | 33.5 µg/mL (≈ 246 µM) | > 100 µg/mL | – | Active
CC1CCC(C(C)C)C(O)C1 (configuration not stated) [MENTHOL] | 99.44 µg | > 100 µg/mL | 9.36 µg/mL (≈ 59.9 µM) | – | Active
CC(C)=CCC/C(C)=C/CO [GERANIOL] | 42.29 µg | > 100 µg/mL | > 100 µg/mL | 76.7% | –
CC12CCC(CC1)C(C)(C)O2 [EUCALYPTOL] | 223.44 µg | 4.17 µg/mL (≈ 27 µM) | 4.34 µg/mL (≈ 28.1 µM) | – | Active
